Measured values from the supplement of paper PMC9663587.

Tests used:
YKL-5-124 = compound: C=CC(=O)Nc1ccc(C(=O)Nc2[nH]nc3c2CN(C(=O)N[C@H](CN(C)C)c2ccccc2)C3(C)C)cc1 [YKL-5-124]
[1] = compound: CC(=O)Nc1cccc(-n2c(=O)n(C3CC3)c(=O)c3c(Nc4ccc(I)cc4F)n(C)c(=O)c(C)c32)c1
Bleomycin = compound: CC1=C(N=C(N=C1N)[C@H](CC(=O)N)NC[C@@H](C(=O)N)N)C(=O)N[C@@H]([C@H](C2=CN=CN2)OC3C(C(C(C(O3)CO)O)O)OC4C(C(C(C(O4)CO)O)OC(=O)N)O)C(=O)N[C@H](C)[C@H]([C@H](C)C(=O)N[C@@H]([C@@H](C)O)C(=O)NCCC5=NC(=CS5)C6=NC(=CS6)C(=O)NCCC[S+](C)C)O [Bleomycin]; settings: main component drawn
TGX221 = compound: CC1=CN2C(=O)C=C(N=C2C(=C1)C(C)NC3=CC=CC=C3)N4CCOCC4 [TGX221]
FMF-03-145-1 = compound: CCC(=O)Nc1ccc(C(=O)Nc2ccc(Nc3ncc4c(n3)N(C)c3ccc(C)cc3C(=O)N4C)cc2)cc1 [FMF-03-145-1]
[2] = compound: CCN1CCN(Cc2ccc(Nc3ncc(F)c(-c4cc(F)c5nc(C)n(C(C)C)c5c4)n3)nc2)CC1
Topotecan = compound: CC[C@@]1(O)C(=O)OCc2c1cc1n(c2=O)Cc2cc3c(CN(C)C)c(O)ccc3nc2-1 [Topotecan]
THZ531 = compound: CN(C)C/C=C/C(=O)Nc1ccc(C(=O)N2CCC[C@@H](Nc3ncc(Cl)c(-c4c[nH]c5ccccc45)n3)C2)cc1 [THZ531]
Everolimus = compound: CO[C@H]1C[C@@H]2CC[C@@H](C)[C@@](O)(O2)C(=O)C(=O)N2CCCC[C@H]2C(=O)O[C@H]([C@H](C)C[C@@H]2CC[C@@H](OCCO)[C@H](OC)C2)CC(=O)[C@H](C)/C=C(\C)[C@@H](O)[C@@H](OC)C(=O)[C@H](C)C[C@H](C)/C=C/C=C/C=C/1C [Everolimus]
Etoposide = compound: COc1cc([C@@H]2c3cc4c(cc3[C@@H](O[C@@H]3O[C@@H]5CO[C@@H](C)O[C@H]5[C@H](O)[C@H]3O)[C@H]3COC(=O)[C@H]23)OCO4)cc(OC)c1O [Etoposide]
AZD6738 = compound: C[C@@H]1COCCN1c1cc(C2([S@](C)(=N)=O)CC2)nc(-c2cc[nH]c3nccc2-3)n1 [AZD6738]
Cisplatin = compound: N.N.Cl[Pt]Cl [Cisplatin]
[3] = compound: COc1cccc(OCCCN)c1-c1cc(Nc2cnc(C#N)cn2)n[nH]1
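Also: breast cancer and non-malignant breast epithelial cell lines, Deep Dye Drop or Dye Drop imaging, nine half-log doses, GR normalized to time-zero plates and DMSO-only controls.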

Cell Line | GR50, 72 h (YKL-5-124) [µM] | GR50, 72 h [1] [µM] | GR50, 72 h (Bleomycin) [µM] | GR50, 72 h (TGX221) [µM] | GR50, 72 h (FMF-03-145-1) [µM] | GR50, 72 h [2] [µM] | GR50, 72 h (Topotecan) [µM] | GR50, 72 h (THZ531) [µM] | GR50, 72 h (Everolimus) [µM] | GR50, 72 h (Etoposide) [µM] | GR50, 72 h (AZD6738) [µM] | GR50, 72 h (Cisplatin) [µM] | GR50, 72 h [3] [µM]
MDAMB468 | < 0.001 | 0.442 | 0.823 | > 10 | 0.00536 | 2.34 | 0.0158 | 0.0412 | > 10 | 0.488 | > 10 | 1.26 | –
HCC1419 | < 0.001 | 0.0308 | 4.04 | > 10 | 0.00703 | 0.0969 | 0.00719 | 0.162 | – | 0.736 | 8.9 | 1.79 | 0.000648
HCC1954 | < 0.001 | 0.0167 | 0.0438 | > 10 | – | 0.302 | 0.0119 | 0.362 | – | 0.171 | 5.43 | 1.25 | –
MGH312 | 0.00434 | > 1 | – | 0.155 | – | 2.43 | – | 0.0332 | < 0.001 | – | – | – | –
BT474 | < 0.001 | > 1 | – | > 10 | – | – | – | 0.0537 | – | – | 7.93 | – | –
HCC1937 | 0.00225 | > 1 | 0.187 | > 10 | 0.00546 | 4.82 | 0.0155 | 0.26 | > 10 | 0.355 | 9.08 | 0.777 | 0.000607
MDAMB436 | 0.0324 | > 1 | 0.855 | > 10 | 0.00578 | 2.1 | 0.00594 | 0.19 | > 10 | 0.26 | 9.07 | 0.417 | 0.000612
SUM229PE | < 0.001 | 0.00774 | – | > 10 | – | 0.531 | – | 0.314 | > 10 | – | 3.34 | – | 0.00707
MCF10A | < 0.001 | 0.00336 | 0.177 | > 10 | – | 0.34 | 0.00987 | 0.358 | > 10 | 0.284 | 9.08 | 4.29 | –
SUM52PE | 0.0453 | > 1 | – | > 10 | – | 0.376 | – | 0.149 | > 10 | – | 5.11 | – | 0.00264
MCF12A | 0.0013 | 0.00833 | – | > 10 | 0.00914 | 5.94 | – | 0.632 | > 10 | – | 3.06 | – | 0.000725
MCF10A (GM) | < 0.001 | – | – | – | 0.00563 | – | – | 0.428 | – | – | 6.85 | – | 0.0122
SUM159 | < 0.001 | 0.0316 | 0.262 | > 10 | 0.00548 | 0.565 | 0.0182 | > 1 | > 10 | 0.398 | 9.98 | 4.32 | 0.000711
